{
  "source": "patent US20180161295A1",
  "about": "“TREATMENT OF CLOSED HEAD INJURY AND HEMORRHAGIC STROKE WITH HBED” (University of Florida Research Foundation, Incorporated, priority 2014, published 2018)",
  "key": {"[1]": {"test_system": "non-iron-loaded beagle dogs", "assay": "28-day intravenous repeat dose toxicity study, non-iron-loaded (normal) dogs", "type": "in vivo", "method": "(§1) 28-Day Intravenous Repeat Dose Toxicity Study of NaHBED in Male and Female Dogs SRI Study.\n(§2) Male and female beagle dogs were either infused biweekly with iron dextran to a level of approximately 500 mg iron/kg body weight or held without iron loading during the 2-month pretreatment phase. All dogs were held an additional 2 ½ months before beginning dose administration with N,N′-di(2-hydroxybenzypethylenediarnine-N,N′-diacetic acid, monosodium salt (NaHBED). Groups of 4 male and 4 female dogs that had been iron-loaded received NaHBED at 21.46, 64.38, or 128.76 mg/kg daily in 15-35 min intravenous (i.v.) infusions for 28 consecutive days; a non-iron-loaded group containing the same number of dogs of each sex received 21.46 mg NaHBED/kg/day i.v. during the same period. Vehicle-only control groups of iron-loaded and non-iron-loaded dogs (3 males and 3 females per group) were subjected to the same regimen concurrently. […] During the treatment period, clinical observations on the animals were made daily after dosing. Body weights were measured before the start of dosing with NaHBED, weekly during the 28-day treatment period, and at study termination when recovery animals were sacrificed; food consumption was measured weekly during the treatment period. Hematology and clinical chemistry parameters, including serum iron parameters, were assessed at Weeks-1, 2, 4, and 8. Urinalysis was performed on bladder urine samples at necropsy. Plasma samples were collected for drug level analysis at selected timepoints after dosing on the first day and 28 days later. Routine ophthalmologic examinations and cardiovascular evaluations were conducted during the week prior to dose administration and during the third and fourth (eye exams) or fourth (cardiology exams) weeks of NaHBED administration. Organ weights were measured at necropsy and organ-to-body and -brain ratios determined. Gross and microscopic examination of a complete set of tissues was performed on iron-loaded high dose (128.76 mg/kg/day) and control groups and on non-iron-loaded low dose (21.46 mg/kg/day) and control groups. Specimens from liver, heart, spleen, lung, kidney, and eye were taken from each dog at necropsy for subsequent tissue analyses of iron and zinc content."}, "iron-loaded beagle dogs": {"test_system": "iron-loaded beagle dogs", "assay": "28-day intravenous repeat dose toxicity study, iron-loaded dogs", "type": "in vivo", "method": "as §1, §2"}, "[2]": {"assay": "Toxicokinetics (plasma drug level analysis) in the 28-day i.v. dog study", "type": "in vivo, beagle dogs", "method": "Male and female beagle dogs were either infused biweekly with iron dextran to a level of approximately 500 mg iron/kg body weight or held without iron loading during the 2-month pretreatment phase. […] During the treatment period, clinical observations on the animals were made daily after dosing. Body weights were measured before the start of dosing with NaHBED, weekly during the 28-day treatment period, and at study termination when recovery animals were sacrificed; food consumption was measured weekly during the treatment period. Hematology and clinical chemistry parameters, including serum iron parameters, were assessed at Weeks-1, 2, 4, and 8. Urinalysis was performed on bladder urine samples at necropsy. Plasma samples were collected for drug level analysis at selected timepoints after dosing on the first day and 28 days later. Routine ophthalmologic examinations and cardiovascular evaluations were conducted during the week prior to dose administration and during the third and fourth (eye exams) or fourth (cardiology exams) weeks of NaHBED administration. Organ weights were measured at necropsy and organ-to-body and -brain ratios determined. […] Specimens from liver, heart, spleen, lung, kidney, and eye were taken from each dog at necropsy for subsequent tissue analyses of iron and zinc content."}, "mTBI animals": {"test_system": "mTBI animals", "assay": "Lower limb spasticity (velocity dependent ankle torque and triceps EMG) after weight drop closed head injury (mTBI)", "type": "in vivo, rats", "conditions": "50 mg/kg s.c. 2x per day for 2 weeks, PO Wk-1 and PO Wk-3", "method": "Ankle torque, displacement and EMGs are simultaneously recorded and time-locked to onset of dorsiflexion. Velocity dependent ankle torque was tested between 49 and 612 degrees/sec dorsiflexion in awake rats.\nThese experiments were performed to assess the influence of treatment using NaHBED following mTBI. Fifteen mTBIs were performed as described above, using 450×1.25m weight drop closed head injury. The animals were randomly divided into two groups, control (n=5) and iron chelator (IC) NaHBED treatment (n=10). Beginning on the first day following injury, NaHBED was delivered by subcutaneous injection of 50 mg/kg, 2× per day, for a total dosage of 100 mg/kg/body weight/day. NaHBED 60 mg/ml, was dissolved in deionized, sterilized, iron-free water. The IC was administered every day for 2 weeks. The control animals received equal volume subcutaneous injections of saline.\nSpasticity: The influence of treatment was tested by analysis of lower limb spasticity (velocity dependent ankle torque and triceps EMG), in mTBI treated and non-treated mTBI animals. A normal ICT group (Normal HBED) was also included as a treatment control."}, "[3]": {"conditions": "non-iron-loaded dogs, 21.46 mg/kg/day i.v., at necropsy"}, "[4]": {"conditions": "non-iron-loaded dogs, 21.46 mg/kg/day i.v., statistically significant for males on Day 15"}, "[5]": {"conditions": "repeated daily i.v. doses, iron-loaded beagle dogs, 28 days"}},
  "note": "“Also recorded” adds a separate entry of the source.",
  "data": [
    {"smiles": "O=C([O-])CN(CCN(CC(=O)O)Cc1ccccc1O)Cc1ccccc1O.[Na+]", "note": "[NaHBED]", "values": [
      {"measurement": "mobilization and excretion of iron and zinc", "setting": "[1]; non-iron-loaded dogs, 21.46 mg/kg/day dose level, monosodium salt, 21.46 mg/kg/day", "value": "induced mobilization and enhanced excretion; also recorded: clear indication"},
      {"measurement": "other effects", "setting": "[1]; non-iron-loaded dogs, 21.46 mg/kg/day i.v., 28 days", "value": "No other effects"},
      {"measurement": "iron content of kidneys", "setting": "[1]; [3]", "value": "dramatic decrease"},
      {"measurement": "zinc content of kidneys", "setting": "[1]; [3]", "value": "dramatic decrease"},
      {"measurement": "urine coloration", "setting": "[1]; non-iron-loaded dogs, 21.46 mg/kg/day i.v., occasionally", "value": "slightly red coloration"},
      {"measurement": "iron-to-transferrin ratio", "setting": "[1]; [4]", "value": "apparent elevation"},
      {"measurement": "serum iron", "setting": "[1]; [4]", "value": "apparent elevation"},
      {"measurement": "iron and zinc in kidneys, females", "setting": "[1]; non-iron-loaded female dogs, 21.46 mg/kg/day i.v., at necropsy", "value": "virtual absence of either ion"},
      {"measurement": "histopathologic findings clearly associated with administration", "setting": "iron-loaded beagle dogs; daily i.v. for 28 days", "value": "no histopathologic findings"},
      {"measurement": "effects on body weight and food consumption; ophthalmologic, cardiovascular, hematology, clinical chemistry and urinalysis parameters; organ weights or weight ratios", "setting": "iron-loaded beagle dogs; iron-loaded dogs, daily i.v. for 28 days", "value": "no distinguishable effects"},
      {"measurement": "observable adverse effects", "setting": "iron-loaded beagle dogs; iron-loaded dogs, high dose level (128.76 mg/kg/day i.v., 28 days)", "value": "emesis and/or diarrhea"},
      {"measurement": "mean kidney iron content", "setting": "iron-loaded beagle dogs; iron-loaded male groups, at necropsy", "value": "statistically lower"},
      {"measurement": "kidney zinc content", "setting": "iron-loaded beagle dogs; iron-loaded, high dose level group, at necropsy", "value": "statistically lower"},
      {"measurement": "urine coloration", "setting": "iron-loaded beagle dogs; majority of dogs at all dose levels, most of the treatment period", "value": "Reddish urine"},
      {"measurement": "maximum tolerated dose (MTD) level", "setting": "iron-loaded beagle dogs; [5]", "value": "> 128.76", "unit": "mg/kg/day"},
      {"measurement": "no observable adverse effect level (NOAEL)", "setting": "iron-loaded beagle dogs; [5]", "value": 64.38, "unit": "mg/kg/day"},
      {"measurement": "total body clearance, Day 28 relative to Day 1", "setting": "[2]; daily i.v., Day 28 vs Day 1", "value": "correspondingly elevated"},
      {"measurement": "volume of distribution, Day 28 relative to Day 1", "setting": "[2]; daily i.v., Day 28 vs Day 1", "value": "correspondingly elevated"},
      {"measurement": "toxicokinetic parameters, iron-loaded versus non-iron-loaded dogs", "setting": "[2]; same dose level", "value": "similar"},
      {"measurement": "amplitudes of time locked EMGs", "setting": "mTBI animals", "value": "significantly lower"},
      {"measurement": "amplitudes of velocity dependent ankle torques", "setting": "mTBI animals", "value": "significantly lower"}
    ]}
  ]
}
